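In this assay, cells in 96-well plates receive the compound at five concentrations for 48 hours. Endpoints are linearly interpolated between the surrounding concentrations. The concentration for 50% growth inhibition is given as GI50. TGI: concentration producing complete growth inhibition.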
What was measured:
Assay in all cases: NCI-60 cell line screen, 48 h
[1] = system: OVCAR-5 ovarian
[2] = system: HCC-2998 colon
[3] = system: SK-MEL-28 melanoma
[4] = system: HCT-116 colon
[5] = system: UACC-257 melanoma
[6] = system: OVCAR-8 ovarian
[7] = system: PC-3 prostate
[8] = system: NCI-H522 lung
[9] = system: MOLT-4 leukemia
[10] = system: NCI-H226 lung

Compound | TGI [1] [µM] | TGI [2] [µM] | TGI [3] [µM] | TGI [4] [µM] | TGI [5] [µM] | TGI [6] [µM] | TGI [7] [µM] | TGI [8] [µM] | TGI [9] [µM] | TGI [10] [µM] | GI50 [9] [µM] | GI50 [1] [µM] | GI50 [10] [µM] | GI50 [7] [µM] | GI50 [3] [µM] | GI50 [4] [µM] | GI50 [6] [µM] | GI50 [2] [µM] | GI50 [5] [µM] | GI50 [8] [µM]
CC(=O)N(C(=O)CC(=O)N1N=C(C)C(N=Nc2cccc([N+](=O)[O-])c2)C1=O)c1ccc(Cl)cc1 (stereo not drawn) | > 10 | > 10 | > 10 | > 10 | > 10 | > 10 | > 10 | > 10 | – | – | – | – | – | – | – | – | – | – | – | –
c1cc(CSP234N5CCN2CCN3CCN4CC5)cc(CSP234N5CCN2CCN3CCN4CC5)c1 | > 100 | 57.5 | 44.6 | > 100 | 34.9 | 41.9 | > 100 | 43.1 | 49.5 | – | – | – | – | – | – | – | – | – | – | –
CCCOC(=O)CCC(NC(=O)c1ccc(Nc2nc3ccccc3nc2-c2cccs2)cc1)C(=O)OCCC (stereo not drawn) | > 100 | > 100 | > 100 | > 100 | – | > 100 | – | > 100 | > 100 | > 100 | – | – | – | – | – | – | – | – | – | –
CCCNC(=O)c1cc(OC)c(OC)cc1NC(=O)C12CC3CC(CC(C3)C1)C2 | 36.6 | – | 32.6 | 30.4 | 32.8 | 66.6 | 35.1 | 30 | > 100 | 55 | – | – | – | – | – | – | – | – | – | –
COc1ccc(C(CC(=O)c2cccs2)C(=O)c2ccc3c(c2)OCO3)cc1 (stereo not drawn) | – | > 100 | > 100 | > 100 | > 100 | > 100 | > 100 | – | > 100 | – | – | – | – | – | – | – | – | – | – | –
CCOC(=O)/C(C(=O)c1ccc[nH]1)=C1/CCCN1C | > 100 | > 100 | > 100 | > 100 | > 100 | > 100 | > 100 | – | > 100 | > 100 | – | – | – | – | – | – | – | – | – | –
CCOc1c2c(cc3c1C(=O)c1c(OC)cccc1C3=O)C=C(OC)CC2 | > 25 | – | > 25 | > 25 | > 25 | > 25 | > 25 | > 25 | > 25 | > 25 | – | – | – | – | – | – | – | – | – | –
CCOC(=O)CN(CC)C(=O)NC12CC3CC(CC(C3)C1)C2 | 545 | 700 | > 750 | 522 | 433 | > 750 | – | 493 | 436 | 480 | – | – | – | – | – | – | – | – | – | –
CN(C)CCCn1c(-c2ccc(Br)cc2)csc1=Nc1ccccc1 | 36.3 | 18.3 | 53.3 | – | 29.8 | 32.1 | 25.2 | – | 59.2 | 27.3 | – | – | – | – | – | – | – | – | – | –
C=CC[PH+](c1ccccc1)c1ccccc1.C=CC[PH+](c1ccccc1)c1ccccc1.[Pt+2].[S-]c1nc2ccccc2[nH]1.[S-]c1nc2ccccc2[nH]1 | 5.42 | – | – | – | – | – | 5.58 | – | > 100 | 4.48 | 2.87 | 2.14 | 1.95 | 1.62 | – | – | – | – | – | –
Cc1cc2nc3c(N)nn(CCCN(C)C)c3nc2cc1C | > 100 | > 100 | > 100 | > 100 | > 100 | > 100 | > 100 | – | – | – | – | – | – | – | – | – | – | – | – | –
c1c2c(cc3c1OCO3)-c1ncc3cc4c(cc3c1C2)OCO4 | > 100 | > 32.4 | 41.8 | > 61.2 | – | 10.7 | > 100 | 72.2 | 0.152 | > 100 | 0.0147 | 44.7 | 8.8 | 0.581 | < 0.01 | < 0.0305 | 0.111 | – | – | –
C(/C=C(\Nc1ccccc1)c1ccc2ccccc2c1)=Nc1ccccc1 | 9.86 | – | 0.961 | 10 | 19.2 | 14.1 | 11.8 | 19 | 2.62 | 5.64 | – | – | – | – | – | – | – | – | – | –
C[N+]1(CC[N+]2(C)CCCC2c2cccnc2)CCCC1c1cccnc1 (stereo not drawn) | > 100 | > 100 | > 100 | > 100 | > 100 | > 100 | > 100 | > 100 | > 100 | – | – | – | – | – | – | – | – | – | – | –
O=C1C=C2SC3C[C@@]24CC1(O)[N+]1=c2c4c(c(O)c4c2=C(C=N4)CC1)N3 | 3.8 | – | 3.03 | 0.492 | 2.42 | 3.63 | – | 0.789 | 0.859 | 3.44 | – | – | – | – | – | – | – | – | – | –
O=C(c1ccccc1)c1nn(-c2cccc(Cl)c2)c2nc3nc(-c4ccccc4)cc(=O)n3nc12 | – | > 25 | > 25 | > 25 | > 25 | > 25 | > 25 | > 25 | > 25 | > 25 | > 25 | – | > 25 | > 25 | > 25 | > 25 | > 25 | 22.6 | > 25 | > 25
C#C[C@]1(O)CC[C@H]2[C@@H]3CCC4=C/C(=N/OC(=O)c5cccc6cc7ccccc7nc56)CC[C@@H]4[C@H]3CC[C@@]21CC | > 100 | > 100 | > 100 | > 100 | > 100 | > 100 | > 100 | – | > 100 | > 100 | – | – | – | – | – | – | – | – | – | –
CSC(SC)=C(C#N)C(=O)Nc1ccc(Cl)cc1 | > 100 | > 100 | > 100 | > 100 | > 100 | > 100 | > 100 | – | 89.6 | 85.9 | – | – | – | – | – | – | – | – | – | –
COC(=O)[C@@H]1CN(C(=O)Cc2ccccc2)C(=O)N1 | > 100 | – | > 100 | > 100 | > 100 | > 100 | > 100 | > 100 | > 100 | > 100 | – | – | – | – | – | – | – | – | – | –
NC1=Nc2ncccc2C(=O)NN1 | > 10 | > 10 | > 10 | > 10 | > 10 | > 10 | > 10 | – | > 10 | > 10 | – | – | – | – | – | – | – | – | – | –
O=S(c1ccc(O)cc1)c1ccc(O)cc1 | > 100 | > 100 | > 100 | > 100 | > 100 | – | – | > 100 | > 100 | > 100 | – | – | – | – | – | – | – | – | – | –
CCN(CC)C(=O)N[C@@H](CC(C)C)C(=O)NC | > 100 | > 100 | > 100 | > 100 | – | > 100 | > 100 | > 100 | > 100 | – | – | – | – | – | – | – | – | – | – | –

Source: PubChem BioAssay (NCI)
